This passage reports EC50 results from patent publication US8288555B2, “Alkene derivatives as sphingosine 1-phosphate (S1P) receptor modulators” (Allergan, Inc., priority 2010, dated 2012).

The structures appear in SMILES notation.

The experiment addresses T1, human S1P4 receptor (Homo sapiens, UniProt O95977).
T1 construct: expressed in transfected cells; membranes used
T1 sequence (O95977 1-384): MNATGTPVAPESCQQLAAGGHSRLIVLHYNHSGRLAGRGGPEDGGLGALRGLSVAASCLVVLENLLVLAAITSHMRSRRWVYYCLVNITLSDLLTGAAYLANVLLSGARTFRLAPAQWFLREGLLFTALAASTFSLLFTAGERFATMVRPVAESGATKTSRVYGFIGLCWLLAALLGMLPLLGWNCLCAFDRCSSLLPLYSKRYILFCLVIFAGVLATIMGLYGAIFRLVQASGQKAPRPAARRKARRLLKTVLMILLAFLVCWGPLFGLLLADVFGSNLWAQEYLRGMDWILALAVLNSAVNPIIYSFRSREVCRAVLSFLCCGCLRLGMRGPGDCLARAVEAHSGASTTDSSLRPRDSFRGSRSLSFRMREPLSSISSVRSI
Description: GTP γ35S binding assay for S1P4 activity. It counts as biochemical. To be noted: activity potency at the S1P4 receptor from GTP γ35S binding; membranes of cells stably expressing the S1P4 receptor; test compounds 0.08 to 5,000 nM. The procedure:
Compounds were synthesized and tested for S1P4 activity using the GTP γ^35S binding assay. These compounds may be assessed for their ability to activate or block activation of the human S1P4 receptor in cells stably expressing the S1P4 receptor.
GTP γ^35S binding was measured in the medium containing (mM) HEPES 25, pH 7.4, MgCl2 10, NaCl 100, dithitothreitol 0.5, digitonin 0.003%, 0.2 nM GTP γ^35S, and 5 μg membrane protein in a volume of 150 μl. Test compounds were included in the concentration range from 0.08 to 5,000 nM unless indicated otherwise. Membranes were incubated with 100 μM 5′-adenylylimmidodiphosphate for 30 min, and subsequently with 10 μM GDP for 10 min on ice. Drug solutions and membrane were mixed, and then reactions were initiated by adding GTP γ^35S and continued for 30 min at 25° C. Reaction mixtures were filtered over Whatman GF/B filters under vacuum, and washed three times with 3 mL of ice-cold buffer (HEPES 25, pH7.4, MgCl2 10 and NaCl 100). Filters were dried and mixed with scintillant, and counted for ^35S activity using a β-counter. Agonist-induced GTP γ^35S binding was obtained by subtracting that in the absence of agonist. Binding data were analyzed using a non-linear regression method. In case of antagonist assay, the reaction mixture contained 10 nM S1P in the presence of test antagonist at concentrations ranging from 0.08 to 5000 nM.
For orientation: Binding of GTPγS marks nucleotide exchange on a G protein.
As usually defined, the EC50 is the concentration at which the effect is half-maximal. A higher EC50 goes with weaker potency. On to `CNc1ncccc1-c1noc(/C(=C/c2ccccc2C)c2cccc(Cl)c2)n1` [Compound 20, 3-{5-[(E)-1-(3-Chlorophenyl)-2-(2-methylphenyl)vinyl]-1,2,4-oxadiazol-3-yl}-N-methylpyridin-2-amine], for which the EC50 amounted to 2000 nM.

The molecule `CNc1ncccc1-c1noc(/C(=C/c2ccc(C)cc2)c2cccs2)n1` [Compound 10, N-Methyl-3-{5-[(Z)-2-(4-methylphenyl)-1-(2-thienyl)vinyl]-1,2,4-oxadiazol-3-yl}pyridin-2-amine] returned an EC50 of 635 nM.

`CNc1ncccc1-c1noc(/C(=C/c2ccc(C)c(C)c2)c2ccsc2)n1` [Compound 8, 3-{5-[(E)-2-(3,4-Dimethylphenyl)-1-(3-thienyl)vinyl]-1,2,4-oxadiazol-3-yl}-N-methylpyridin-2-amine]: the EC50 stood at 665 nM.

For the molecule `CNc1ncccc1-c1noc(/C(=C/c2ccc(C)c(C)c2)c2cccc(Cl)c2)n1` [Compound 7, 3-{5-[(E)-1-(3-Chlorophenyl)-2-(3,4-dimethylphenyl)vinyl]-1,2,4-oxadiazol-3-yl}-N-methylpyridin-2-amine], the EC50 worked out at 79.3 nM.

With `CNc1ncccc1-c1noc(/C(=C/c2ccc(C)c(C)c2)c2cccc(C)c2)n1` [Compound 6, 3-{5-[(E)-2-(3,4-Dimethylphenyl)-1-(3-methylphenyl)vinyl]-1,2,4-oxadiazol-3-yl}-N-methylpyridin-2-amine], it took 2020 nM to reach a half-maximal effect (EC50).

As for `CNc1ncccc1-c1noc(/C(=C/c2ccc(C)c(C)c2)c2cc(F)cc(F)c2)n1` [Compound 14, 3-{5-[(E)-1-(3,5-Difluorophenyl)-2-(3,4-dimethylphenyl)vinyl]-1,2,4-oxadiazol-3-yl}-N-methylpyridin-2-amine], the response was half-maximal at 550 nM (EC50).

The molecule `CNc1ncccc1-c1noc(/C(=C/c2ccc(C)c(C)c2)c2ccccc2OC)n1` [Compound 16, 3-{5-[(E)-2-(3,4-Dimethylphenyl)-1-(2-methoxyphenyl)vinyl]-1,2,4-oxadiazol-3-yl}-N-methylpyridin-2-amine] yielded a half-maximal effective concentration (EC50) of 501 nM.

Turning to `CNc1ncccc1-c1noc(/C(=C/c2ccc(C)c(C)c2)c2cccc(F)c2)n1` [Compound 5, 3-{5-[(E)-2-(3,4-Dimethylphenyl)-1-(3-fluorophenyl)vinyl]-1,2,4-oxadiazol-3-yl}-N-methylpyridin-2-amine], the EC50 amounted to 375 nM.

On to `CNc1ncccc1-c1noc(/C(=C/c2ccc(C)c(C)c2)c2cccs2)n1` [3-{5-[(Z)-2-(3,4-dimethylphenyl)-1-(2-thienyl)vinyl]-1,2,4-oxadiazol-3-yl}-N-methylpyridin-2-amine], for which the EC50 is 140 nM.

`CNc1ncccc1-c1noc(/C(=C/c2ccc(C)c(C)c2)c2cccc(OC)c2)n1` [Compound 15, 3-{5-[(E)-2-(3,4-Dimethylphenyl)-1-(3-methoxyphenyl)vinyl]-1,2,4-oxadiazol-3-yl}-N-methylpyridin-2-amine] showed an EC50 of 1780 nM.
